We go through 25 compounds from patent US20250134842A1, “FATTY ACID MIMETICS AS MODULATORS OF NUCLEAR RECEPTOR TLX (NR2E1)” (Trustees of Dartmouth College, priority 2023, published 2025).

The target of the assay is nuclear receptor TLX (NR2E1) ligand-binding domain (Homo sapiens (Human), UniProt Q9Y466). In words: AlphaScreen assay detecting TLX-RIP140 NR box peptide interaction. To be noted: for EC50 / Efficacy (fold increase): his-tagged TLX LBD, biotinylated RIP140-L6 peptide recruitment; for Emax: read-out: Relative efficacy (%). It is filed as biochemical. Here is the method: In these experiments, compounds from Example 1 were evaluated in a biochemical assay to characterize ligand binding to TLX by detecting alterations in the ability of the TLX ligand binding domain to recruit an NR box peptide derived from the nuclear receptor-interacting protein 1 (NRIP1; receptor-interacting protein 140 (RIP140) transcriptional cofactor. RIP140 has been previously identified as a TLX interacting protein (Corso-Diaz X, et al. (2016) Co-activator candidate interactions for orphan nuclear receptor NR2E1. BMC Genomics 17:832).
AlphaScreen (Perkin Elmer, Shelton, CT) technology was used to detect the TLX-RIP140 NR box peptide interaction. The AlphaScreen assay was performed as previously described using other nuclear receptors including ROR, FXR, LXR, VDR and RXR (Bettoun D J, et al., (2003) Mol Endocrinol 17:2320-2328; Bramlett K S, et al., (2003) Journal of Pharmacology and Experimental Therapeutics 307:291-296; Houck K A, at al., (2004) Mol Genet Metab 83:184-187; Kumar N, et al., (2010) Mol Pharmacol 77:228-236; and Wang Y, et al., (2010) ACS Chemical Biology: 1029-1034. The present experiments used the N-terminal his-tagged ligand-binding domain (LBD) of TLX (NovAliX SAS, Strasbourg, France) and an N-terminal biotinylated RIP140-L6 peptide with a N-terminal KGG linker, namely ([…] (aa484-513)).
Background: In Alpha technology, singlet oxygen from a donor bead excites a nearby acceptor bead.

The structures appear in SMILES notation.

Chain of nuclear receptor TLX (NR2E1) ligand-binding domain (Q9Y466 155-383): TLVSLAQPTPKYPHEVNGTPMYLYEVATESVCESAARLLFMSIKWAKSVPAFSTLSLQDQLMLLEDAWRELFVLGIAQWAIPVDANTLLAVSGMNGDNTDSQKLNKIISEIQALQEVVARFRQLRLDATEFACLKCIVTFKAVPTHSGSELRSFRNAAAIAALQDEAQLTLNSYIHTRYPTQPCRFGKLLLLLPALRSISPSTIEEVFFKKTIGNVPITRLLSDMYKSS

With `CCCCCCCCCC/C=C(/C)C/C(C)=C/[C@H](C)CC(=O)O` [Compound 1-A], the 50% effective concentration (EC50) was 2200 nM and the “Efficacy (fold increase)” value stood at 6.1 fold. Also, the Emax (relative to oleic acid = 100.0) came to 72.6%.
Regarding `CCCCCCCCCC/C=C(/C)C/C(C)=C/[C@@H](C)CC(=O)O` [Compound 1-B], the EC50 was 2400 nM and the “Efficacy (fold increase)” value is given as 6.5 fold. Further, the Emax (relative to oleic acid = 100.0) came to 77.4%.
On to `CCCCCCCCC[C@@H](C)/C=C(/C)C/C(C)=C/[C@H](C)CC(=O)O` [Compound 1-C], for which the response was half-maximal at 3100 nM (EC50) and the “Efficacy (fold increase)” value came out at 6.8 fold. Moreover, the Emax (relative to oleic acid = 100.0) amounted to 81%.
As to `CCCCCCCCC[C@@H](C)/C=C(/C)C/C(C)=C/[C@@H](C)CC(=O)O` [Compound 1-D], the EC50 turned out to be 3200 nM and the “Efficacy (fold increase)” value came out at 7.1 fold. In addition, the Emax (relative to oleic acid = 100.0) stood at 84.5%.
On to `CCCCCCCCC[C@H](C)/C=C(/C)C/C(C)=C/[C@H](C)CC(=O)O` [Compound 1-E], for which a half-maximal effect (EC50) was put at 1700 nM and the “Efficacy (fold increase)” value came out at 6.2 fold. Also, for the setting “relative to oleic acid = 100.0”, the Emax came to 73.8%.
As for `CCCCCCCCC[C@H](C)/C=C(/C)C/C(C)=C/[C@@H](C)CC(=O)O` [Compound 1-F], the half-maximal effective concentration (EC50) amounted to 1900 nM and the “Efficacy (fold increase)” value is given as 7.2 fold. The Emax (relative to oleic acid = 100.0) was determined as 85.7%.
Take `CCCCCCCC/C=C(/C)C/C(C)=C/[C@H](C)CCCC(=O)O` [Compound 2-A]: the half-maximal effective concentration (EC50) came out at 2500 nM and the “Efficacy (fold increase)” value is 6.6 fold. In addition, where the note is “relative to oleic acid = 100.0”, the Emax came to 78.6%.
The matching figures for `CCCCCCCC/C=C(/C)C/C(C)=C/[C@@H](C)CCCC(=O)O` [Compound 2-B]: 3100 nM, 6.6 fold and 78.6%.
For `CCCCCCC[C@@H](C)/C=C(/C)C/C(C)=C/[C@H](C)CCCC(=O)O` [Compound 2-C], a half-maximal response (EC50) required 1500 nM and the “Efficacy (fold increase)” value was 6.6 fold. Also, the Emax (relative to oleic acid = 100.0) was 78.6%.
With `CCCCCCC[C@@H](C)/C=C(/C)C/C(C)=C/[C@@H](C)CCCC(=O)O` [Compound 2-D], the midpoint of the response, the EC50, lay at 1300 nM and the “Efficacy (fold increase)” value is 5.8 fold. Further, under “relative to oleic acid = 100.0”, the Emax came to 69%.
Take `CCCCCCC[C@H](C)/C=C(/C)C/C(C)=C/[C@H](C)CCCC(=O)O` [Compound 2-E]: the EC50 was found to be 1300 nM and the “Efficacy (fold increase)” value turned out to be 5.8 fold. In addition, the Emax (relative to oleic acid = 100.0) is 69%.
As for `CCCCCCC[C@H](C)/C=C(/C)C/C(C)=C/[C@@H](C)CCCC(=O)O` [Compound 2-F], a half-maximal response (EC50) required 1600 nM and the “Efficacy (fold increase)” value came to 6.1 fold. The Emax (relative to oleic acid = 100.0) came out at 72.6%.
As to `CCCCCC/C=C(/C)C/C(C)=C/[C@H](C)CCCCCC(=O)O` [Compound 3-A], the EC50 worked out at 1600 nM and the “Efficacy (fold increase)” value worked out at 6.5 fold. Also, the Emax (relative to oleic acid = 100.0) amounted to 77.4%.
The matching figures for `CCCCCC/C=C(/C)C/C(C)=C/[C@@H](C)CCCCCC(=O)O` [Compound 3-B]: 900 nM, 6.6 fold and 78.6%.
Regarding `CCCCC[C@@H](C)/C=C(/C)C/C(C)=C/[C@H](C)CCCCCC(=O)O` [Compound 3-C], the EC50 is 800 nM and the “Efficacy (fold increase)” value is reported as 5.5 fold. Besides, for the setting “relative to oleic acid = 100.0”, the Emax was found to be 65.5%.
As to `CCCCC[C@@H](C)/C=C(/C)C/C(C)=C/[C@@H](C)CCCCCC(=O)O` [Compound 3-D], the EC50 worked out at 1200 nM and the “Efficacy (fold increase)” value is reported as 6.1 fold. In addition, the Emax (relative to oleic acid = 100.0) amounted to 72.6%.
With `CCCCC[C@H](C)/C=C(/C)C/C(C)=C/[C@H](C)CCCCCC(=O)O` [Compound 3-E], a half-maximal effect (EC50) was put at 1000 nM and the “Efficacy (fold increase)” value is listed as 6.3 fold. Besides, the Emax (relative to oleic acid = 100.0) was determined as 75%.
The matching figures for `CCCCC[C@H](C)/C=C(/C)C/C(C)=C/[C@@H](C)CCCCCC(=O)O` [Compound 3-F]: 900 nM, 6.0 fold and 71.4%.
The matching figures for `CCCC/C=C(/C)C/C(C)=C/[C@H](C)CCCCCCCC(=O)O` [Compound 4-A]: 1500 nM, 6.6 fold and 78.6%.
The matching figures for `CCCC/C=C(/C)C/C(C)=C/[C@@H](C)CCCCCCCC(=O)O` [Compound 4-B]: 3000 nM, 7.1 fold and 84.5%.
With `CCC[C@@H](C)/C=C(/C)C/C(C)=C/[C@H](C)CCCCCCCC(=O)O` [Compound 4-C], the EC50 is 1500 nM and the “Efficacy (fold increase)” value is listed as 6.2 fold. The Emax (relative to oleic acid = 100.0) worked out at 73.8%.
Consider `CCC[C@@H](C)/C=C(/C)C/C(C)=C/[C@@H](C)CCCCCCCC(=O)O` [Compound 4-D], for which the EC50 was determined as 1600 nM and the “Efficacy (fold increase)” value came to 6.2 fold. Also, the Emax (relative to oleic acid = 100.0) was found to be 73.8%.
For `CCC[C@H](C)/C=C(/C)C/C(C)=C/[C@H](C)CCCCCCCC(=O)O` [Compound 4-E], the EC50 was determined as 1300 nM and the “Efficacy (fold increase)” value is 5.7 fold. Besides, under “relative to oleic acid = 100.0”, the Emax was found to be 67.9%.
With `CCC[C@H](C)/C=C(/C)C/C(C)=C/[C@@H](C)CCCCCCCC(=O)O` [Compound 4-F], the concentration for a half-maximal effect (EC50) turned out to be 1900 nM and the “Efficacy (fold increase)” value is given as 6.0 fold. For the same compound, where the note is “relative to oleic acid = 100.0”, the Emax is 71.4%.
Take `CCCCCCCC/C=C\CCCCCCCC(=O)O` [Oleic Acid, oleic acid, reference compound]: the concentration for a half-maximal effect (EC50) turned out to be 3600 nM and the “Efficacy (fold increase)” value amounted to 8.4 fold. Moreover, the “Relative efficacy (%)” value (relative to oleic acid = 100.0) came out at 100.0%.

For orientation: EC50 means the concentration at which the effect is half-maximal. A higher EC50 goes with a need for much substance.
